Measurements taken from EP0483928A1, “2-Saccharinylmethyl aryl carboxylates useful as proteolytic enzyme inhibitors and compositions and method of use” (STERLING WINTHROP INC., priority 1990, dated 1992).
pKi: −log10 of the molar value. Counter-ions that a name gives are not always drawn.

Target: T1, human leukocyte elastase (HLE) (Homo sapiens, UniProt P08246)
T1 sequence (P08246 30-267): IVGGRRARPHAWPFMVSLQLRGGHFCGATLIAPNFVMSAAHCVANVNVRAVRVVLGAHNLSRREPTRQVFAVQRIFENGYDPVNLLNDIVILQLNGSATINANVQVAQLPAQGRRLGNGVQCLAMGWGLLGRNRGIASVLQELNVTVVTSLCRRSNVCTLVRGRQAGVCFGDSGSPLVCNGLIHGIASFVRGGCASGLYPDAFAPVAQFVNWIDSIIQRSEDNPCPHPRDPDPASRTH
Experiment: Inhibition of human leukocyte elastase: rate of inactivation kon and inhibition constant Ki* (koff/kon)
Assay type: biochemical
Details: Ki* = koff/kon, calculated from measured koff and kon; not a truly reversible Ki; read-out: K*i
Experimental: Thus, instead of measuring a Ki, a Ki* is calculated which is defined as the ratio of the koff/kon, the rate of reactivation of the enzyme to the rate of inactivation of the enzyme. The values of koff and kon are measured and Ki* is then calculated.
The rate of inactivation, kon, of enzymatic activity was determined for the compounds tested by measuring the enzyme activity of an aliquot of the respective enzyme as a function of time after addition of the test compound. […] The rate of inactivation is then equal to [formula] where [I] is the concentration of the inhibiting compound.
The reactivation constant, koff, is similarly determined, and the inhibition constant, Ki*, is then calculated as Ki * = koff /kon [formula]

| SMILES | pKi |
| --- | --- |
| CC(C)c1cc2c(c3c1C(=O)N(COC(=O)c1c(Cl)ccc(S(=O)(=O)N4CCN(C)CC4)c1Cl)S3(=O)=O)OCO2 [Example 1BI] | 10.54 |
| COc1cc(C(C)C)c2c(c1)S(=O)(=O)N(COC(=O)c1c(OC)ccc([N+](=O)[O-])c1OC)C2=O [Example 1BN] | 10.60 |
| CCOc1cc(C(C)C)c2c(c1)S(=O)(=O)N(COC(=O)c1c(Cl)ccc(OCCN3CCOCC3)c1Cl)C2=O [Example 1AX] | 10.48 |

Continued, values first:

| pKi | SMILES |
| --- | --- |
| 10.70 | CC(C)c1cccc2c1C(=O)N(COC(=O)c1c(Cl)ccc(S(=O)(=O)N3CCNCC3)c1Cl)S2(=O)=O [Example 2B, 4-isopropyl-2-saccharinylmethyl 2,6-dichloro-3-(1-piperazinylsulfonyl)benzoate hydrochloride] |
| 9.52 | CC(C)c1cccc2c1C(=O)N(COC(=O)c1c3ccccc3cc3ccccc13)S2(=O)=O [Example 1L] |
| 10.05 | Cc1cccc(C)c1C(=O)OCN1C(=O)c2c(C(C)C)cccc2S1(=O)=O [Example 1K] |
| 9.70 | CC(C)c1cc(-c2cccn2C)cc2c1C(=O)N(COC(=O)c1c(Cl)cccc1Cl)S2(=O)=O [Example 5J, 4-isopropyl-6-[2-[1-methyl]pyrrolidinyl]saccharinylmethyl 2,6-dichlorobenzoate] |
